{"source": "patent US6340741B1", "about": "“Potent genetic switch allowing regulated gene expression in eukaryotic cells” (University of Lausanne, priority 1998, dated 2002)", "system": "p5xGTTI-Luc+ luciferase reporter in BHK 21 cells", "test": "Repression of luciferase reporter activated by constitutive GAL4-VP16, transient transfection of BHK 21 cells (Example 2)", "assay_type": "cell-based, hamster", "settings": "100 ng/ml dox", "method": "Baby hamster kidney 21 (BHK 21) cells were cultivated in DMEM (Gibco-BRL) supplemented with 10% FCS (Gibco-BRL). For transfectiors, cells were seeded in 24 well plates at about 40% confluency and allowed to attach to the surface. After washing with PBS, cells were exposed to the transfection mix for 4 hours. Thereafter, the transfection mix was replaced by medium which contained, where indicated, 100 ng/ml doxycycline hydrochloride (Sigma #D9891). Generally, medium was replaced every 24 hours and cells were harvested 48 hours post-transfection.\nFor luciferase and β-galactosidase measurements, cell extracts were prepared as follows. […] After a delay of 2 sec light emission was measured for 2 sec.\nColorimetric determination of β-galactosidase activity was performed by adding 150 μl CPRG buffer (60 mM Na2HPO4 7 H2O, 40 mM NaH2PO4, 10 mM KCl, 1 mM MgSO4, 50 mM β-mercaptoethanol) and 20 μl CPRG solution (Boehringer Mannheim #884308, 4 mg/ml in H2O) to the remaining 30 μl cell extract in the 96 well plate. […] Absorbance was measured at 575 nm in a plate reader (Spectramax 340, Molecular Devices) and samples were normalized to wells in which lysis buffer was assayed.\nRelative light units were calculated by normalizing luciferase for β-galactosidase activity. […]"}
{"smiles": "C[C@H]1c2cccc(O)c2C(=O)C2=C(O)[C@]3(O)C(=O)C(C(N)=O)=C(O)[C@@H](N(C)C)[C@@H]3[C@@H](O)[C@@H]21.Cl", "note": "[dox, doxycycline hydrochloride]", "values": [{"measurement": "effect of addition of the dox ligand on repression", "value": "abolished the repression"}]}
